Laboratory results from paper PMC9866905, “Dehydroeburicoic Acid, a Dual Inhibitor against Oxidative Stress in Alcoholic Liver Disease” (Pharmaceuticals, 2022).

How the values were obtained:
[1] = target: T1, GSK3β (Homo sapiens, UniProt P49841); assay: ADP-Glo luminescent kinase assay, dose-response; supported by CETSA in LO2 lysate (ΔTm ca. […] °C); type: biochemical
T1 construct: gene GSK3B

[2] = target: Keap1 (Homo sapiens, UniProt Q14145); assay: fluorescence polarization competition with labeled Nrf2 (ETGE) peptide, dose-response; supported by CETSA in LO2 lysate (ΔTm ca. […] °C); type: binding; conditions: read-out: EC50 (the source's name)
Chain of Keap1 (Q14145 whole entry): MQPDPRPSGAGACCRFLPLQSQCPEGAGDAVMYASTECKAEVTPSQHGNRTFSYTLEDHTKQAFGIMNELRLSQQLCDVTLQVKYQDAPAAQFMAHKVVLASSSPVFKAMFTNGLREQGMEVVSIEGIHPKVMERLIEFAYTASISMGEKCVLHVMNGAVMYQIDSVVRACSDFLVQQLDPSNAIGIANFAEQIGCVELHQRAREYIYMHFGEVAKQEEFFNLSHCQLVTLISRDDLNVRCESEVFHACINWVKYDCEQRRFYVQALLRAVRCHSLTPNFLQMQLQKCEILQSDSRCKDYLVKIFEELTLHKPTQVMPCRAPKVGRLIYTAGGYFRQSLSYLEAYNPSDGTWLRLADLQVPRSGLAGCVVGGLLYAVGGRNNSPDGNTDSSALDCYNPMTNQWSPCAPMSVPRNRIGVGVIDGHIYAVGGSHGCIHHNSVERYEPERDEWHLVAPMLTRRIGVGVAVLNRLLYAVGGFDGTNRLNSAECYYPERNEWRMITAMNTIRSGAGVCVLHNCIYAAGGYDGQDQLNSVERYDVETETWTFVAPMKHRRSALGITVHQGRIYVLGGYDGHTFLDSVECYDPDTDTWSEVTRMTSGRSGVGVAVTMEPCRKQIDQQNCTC

T1 sequence (P49841 whole entry): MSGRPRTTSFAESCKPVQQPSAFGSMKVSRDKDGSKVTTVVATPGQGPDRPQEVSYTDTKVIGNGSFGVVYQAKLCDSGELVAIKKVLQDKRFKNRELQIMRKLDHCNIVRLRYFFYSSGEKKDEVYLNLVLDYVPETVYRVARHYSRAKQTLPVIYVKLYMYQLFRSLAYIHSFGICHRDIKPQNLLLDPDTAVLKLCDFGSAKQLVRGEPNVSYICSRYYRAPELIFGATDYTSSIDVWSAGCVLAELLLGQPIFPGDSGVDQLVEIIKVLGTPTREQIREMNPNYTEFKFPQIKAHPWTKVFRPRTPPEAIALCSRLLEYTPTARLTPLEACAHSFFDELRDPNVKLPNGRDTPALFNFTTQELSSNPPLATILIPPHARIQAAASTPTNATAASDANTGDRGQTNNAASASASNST

## C=C(CC[C@@H](C(=O)O)[C@H]1CC[C@@]2(C)C3=CC[C@H]4C(C)(C)[C@@H](O)CC[C@]4(C)C3=CC[C@]12C)C(C)C [compound 1, Dehydroeburicoic acid]
[1]
  EC50: 8 ± 0.7 µM
[2]
  IC50: 14.1 ± 0.1 µM
